According to patent publication US10539566B2, “Use of markers including filamin A in the diagnosis and treatment of prostate cancer” (Berg LLC, priority 2014, dated 2020):

Key:
Type in all cases: cell-based, human
PC3 cells = assay: Causal protein networks from 2D LC-MS proteomics of prostate cancer cells treated with ubidecarenone; details: upon treatment with ubidecarenone
Source text: An interrogative systems biology based discovery platform (i.e., Interrogative Platform Technology or a.k.a. Interrogative Biology™) disclosed in WO2012119129 (incorporated herein by reference), and shown schematically in FIG. 1, provides new mechanistic insights into understanding mitochondrial role in behavior of prostate cancer cells. The discovery platform involves discovery across a hierarchy of systems including in vitro human cell based models and human serum samples from prostate cancer patients and downstream data integration and mathematical modeling employing an Artificial Intelligence (AI) based informatic module. For cellular models, androgen sensitive LnCAP cell line and metastatic, androgen refractory PC3 cell line were treated with ubidecarenone (coenzyme Q10) in order to engage the mitochondrial machinery. Proteomic signatures were captured using a 2D LC-MS orbitrap technology. Total protein signatures were input to an AI based informatics module to generate causal protein networks (FIG. 2).
The keratin 8/15 association was lost upon treatment with ubidecarenone, and a direct association of keratins 7 and 15 was established (FIG. 3).

[1] = test system: LnCAP cell line and PC3 cell line; assay: Wet lab assays measuring mitochondrial ROS, ATP and caspase 3 activation; details: LnCAP and PC3 cells treated with ubidecarenone
[2] = test system: LnCAP, DU145, and PC-3 cells; assay: Quantitative RT-PCR of FLNA, FLNB and KRT19 expression after prostate-relevant stimuli; details: 24 h, DU145, PC-3 cells
Procedure: Specifically, mRNA was prepared from LnCAP, DU145, and PC-3 cells exposed to hypoxia (1% oxygen; A), TNFα (10 ng/mL; B), or R1881 (1 nM; C) for 24 h. Expression of FLNA, FLNB, and KRT19 was assessed by quantitative RT-PCR, normalized to TBP, and compared to PSA. Values represent means+SEM, N=3. * p<0.05 compared to normoxia/control.

COC1=C(OC)C(=O)C(C/C=C(\C)CC/C=C(\C)CC/C=C(\C)CC/C=C(\C)CC/C=C(\C)CC/C=C(\C)CC/C=C(\C)CC/C=C(\C)CC/C=C(\C)CCC=C(C)C)=C(C)C1=O [ubidecarenone]
direct association of keratins 7 and 15 in causal protein maps (PC3 cells): established
keratin 8/15 association in causal protein maps (PC3 cells): lost
intracellular levels of mitochondrial ROS, ATP and caspase 3 activation [1]: confirmed changes in intracellular levels

C[C@]1(O)CC[C@H]2[C@@H]3CCC4=CC(=O)CCC4=C3C=C[C@@]21C [R1881]
global regulation of FLNA, FLNB, and KRT19 expression (mRNA, normalized to TBP) ([2]; R1881 1 nM): remained unaltered

TNFα
global regulation of FLNA, FLNB, and KRT19 expression (mRNA, normalized to TBP) ([2]; TNFα 10 ng/mL): remained unaltered
